Test [1] deals with L. major/egfp promastigotes. Put plainly: Analysis of in vitro anti-leishmanial activity (growth inhibition, egfp fluorescence). Type of test: cell-based, Leishmania major. Particulars: 25° C., 72 h, Amphotericin B positive control defined as 100%, FIG. 9. Here is the method:
The compounds represented by formulas (1) to (6), which had been isolated by the procedure described above, were subjected to an analysis of the physiological activity under the conditions that are described below. Leishmania major promastigotes were selected as the Leishmania protozoa, and a L. major/egfp promastigotes in which a fluorescent protein egfp gene had been introduced was used. The compounds mentioned above were used as samples. Thus, the growth inhibition rate was determined under the following conditions.
L. major/egfp promastigotes were maintained at 25° C. using a 96-well plate, in 199 medium (NISSUI Pharmaceutical) containing 10% fetal bovine serum 25 mM and Hepes buffer (ICN Biomedeivals, Inc., Aurora, Ohio) and 10 μg/mL Tunicamycin (SIGMA-ALDRICH, inc., USA). Subsequently, to each well of 96-well plates containing 100 μL of L. major/egfp suspension with 1×10^6 cells/mL, 100 μL of test solution (sample dissolved in DMSO) was added, and the plates were incubated at 25° C. for 72 h. Thereafter, Fluorescence signals of L. major/egfp promastigotes were measured with a fluorescence microplate reader (Fluoroscan Ascent FL, Dainippon Pharmaceutical Co.) with excitation at 485 nm and emission at 538 nm. […]

Test [2] deals with L. major PM2. In words: Analysis of in vivo anti-leishmanial activity in leishmaniasis mouse model. Particulars: Balb/c mice infected with L. major PM2; 200 μg by peritoneal injection once a day for three weeks; FIG. 10-12. On the procedure: In order to evaluate the in vivo anti-leishmanial activity of the compound represented by formula (3), which had been isolated by the procedure described above, a leishmaniasis mouse model was used to investigate the therapeutic effect. Six-week old mice (Balb/c, male, 6 animals per group) were infected with 1×10^7 cells of cultured promastigotes of L. major PM2. From the day after the infection day, the compound represented by the formula (3) was administered to each specimen in an amount of 200 [μg by peritoneal injection. The administration schedule was such that the compound was continuously administered once a day for three weeks. Further, as control, the same analysis was carried out also for a treatment group to which Amphotericin B was administered, and for a treatment group to which none was administered.

For the compound `CC(C)=CCC/C(C)=C/CC/C(C)=C/CC/C(C)=C/CC1(CC(=O)O)CC(=O)C=CC1=O` (centres unmarked) [formula (3)], the growth inhibition rate entry in test [1] is “almost equal to the growth inhibition rate of Amphotericin B”. Moreover, the “in vivo anti-leishmanial activity (size of ulcer, antibody titer in blood, protozoan DNA in blood)” value in test [2] is “equal to that of Amphotericin B”.
